Results taken from patent publication US4127720A, “Pyrimido[2,1-a]isoquinoline derivatives having antiallergy activity” (priority 1977, dated 1978).

Each compound was assayed on reagin-mediated rat Passive Cutaneous Anaphylaxis (PCA) (assay: Reagin-mediated rat Passive Cutaneous Anaphylaxis (PCA) screening test). Settings: iv, 1-5 minutes prior to antigen challenge (DSCG: at the time of antigen challenge), read-out: Rat PCA Test ID50, i.v. (dose of compound that inhibits 50% of the response).
Format: in vivo, Sprague-Dawley rats
Protocol: The reagin-mediated rat Passive Cutaneous Anaphylaxis (PCA) screening test used to evaluate the present compounds is generally regarded as one of the best animal models for use in predicting the antiallergy activity of test compounds in man. Briefly, the method consists of passive sensitization of skin sites on the test animals with reaginic antibodies followed after 24 hours by administration of the test drug and antigen challenge. The allergic response is measured by use of Evans' blue dye and is evaluated by the spot diameter at the injection side. Details of the test are provided below.
A substituted ovalbumin antigen is used both as immunogen and challenging antigen. The antigen is prepared as follows: 500 mg. ovalbumin (EA) and 500 mg. K2 CO3 are dissolved in 25 ml. distilled H2 O and stirred at room temperature for 5 minutes. Five hundred (500) mg. dinitrobenzene sulfonic acid, Na^+ salt, (previously recrystallized from hot absolute ethanol) is then added slowly with continued stirring. The reaction mixture is then immediately placed in the dark and allowed to proceed for 2 hours with constant stirring. After 2 hours the mixture is placed in suitable dialysis tubing and dialyzed against 5 changes (4 liters each) of distilled H2 O at 5° C. After dialysis the product is lyophilized and stored at room temperature in a brown or amber container. The antigen obtained will appear as a light yellow, amorphous solid which is very soluble in water or saline. It is designated as DNP denatured ovalbumin (DNP-d EA).
Adult, male Sprague-Dawley rats are used as a source or reagin-rich antisera for the PCA model. Immunization is by a combination of DNP-d EA on Al(OH)3 gel and B. pertussis vaccine. Preparation of the DNP-d EA - gel immunogen is as follows: Dissolve the DNP-d EA in TBS so as to give a concentration of 10 mg./ml. Slowly add 1 ml. of this solution to 10 ml. Al(OH)3 gel (10 mg. solids/ml.) with constant stirring at room temperature. Stir the mixture an additional 30 minutes to insure a uniform adsorption of antigen on gel.
The resulting preparation is then used in combination with phase I B. pertussis vaccine to immunize male S/D rats as follows: For each rat administer 0.1 ml. DNP-d EA - gel suspension intramuscularly in each hind leg (200 μg DNP-d EA and 2 mg. gel total dose). Follow these injections by the intraperitoneal administration of 1.0 ml. B. pertussis vaccine (10-20 × 10^9 organisms). The use of light ether anesthesia during this procedure is recommended to insure proper intramuscular and intraperitoneal injections. Nine days following immunization (but no longer than 10) the animals are exsanguinated by cardiac puncture or abdominal aorta cannulation under ether or pentobarbital anesthesia. The collected whole blood is allowed to clot, the serum separated by centrifugation and the individual serum samples stored frozen until assayed for IgE content.
Individual serum samples should be screened for reaginic antibody concentration before being pooled with other sera, as not all rats respond to immunization procedures with reagin production. A 1:50 saline dilution of serum from each immunized rat is used for this purpose. Intradermal injections of 0.05 ml. of the diluted sera are made in the shaven backs of two small female recipient rats, 100-120 gms. Several serum samples can be tested simultaneously in recipient animals. After a 24 to 48 hour latent period antigen challenge is accomplished by intravenous administration to each rat of 1 mg. DNP-d EA in 0.5 ml. 0.5% Evans' blue dye in saline. Sera which show positive PCA reactions at the 1:50 dilution, as measured 20 to 30 minutes post-challenge are pooled, dispensed in small aliquots and stored at -70° C. or lower until used. Negative sera may be discarded.
The IgE titer of the antisera pool should then be determined. […]
Work on CCc1cn2c(=O)c(-c3nnn[nH]3)cnc2c2ccccc12 [Example 25, 7-Ethyl-3-(1H-tetrazol-5-yl)-4H-pyrimido[2,1-a]isoquinol-4-one] yielded an ED50 of 0.009 mg/kg.
C=CCc1cn2c(=O)c(C(=O)O)cnc2c2cc(OC)ccc12 [Example 17C, 7-allyl-10-methoxy-4-oxo-4H-pyrimido[2,1-a]isoquinoline-3-carboxylic Acid] was tested, and the ED50 was roughly 0.53 mg/kg.
With COc1ccc2ccn3c(=O)c(C(=O)O)cnc3c2c1 [Example 16, 10-Methoxy-4-oxo-4H-pyrimido[2,1-a]isoquinoline-3-carboxylic acid] the ED50 was roughly 1 mg/kg.
Compound O=C(O)c1cnc2c3ccccc3c(O)cn2c1=O [Example 5, 7-Hydroxy-4-oxo-4H-pyrimido[2,1-a]isoquinoline-3-carboxylic Acid] has an ED50 of roughly 1.7 mg/kg.
Work on O=c1c(-c2nnn[nH]2)cnc2c3ccccc3ccn12 [Example 8, 3-(1H-Tetrazol-5-yl)-4H-pyrimido[2,1-a]isoquinol-4-one] yielded an ED50 of 0.04 mg/kg.

Same assay, conditions: po, 10 minutes prior to antigen challenge, Table 1, read-out: Rat PCA Test ID50, p.o. (dose of compound that inhibits 50% of the response)
For O=C(O)c1cnc2n(c1=O)CCc1cc(O)c(O)cc1-2 [Example 20, 6,7-Dihydro-9,10-dihydroxy-4-oxo-4H-pyrimido[2,1-a]isoquinoline-3-carboxylic Acid], the ED50 was roughly 0.077 mg/kg.
Work on CCC1Cn2c(ncc(C(=O)O)c2=O)-c2ccccc21 (racemic) [Example 11C, (±)-7-ethyl-6,7-dihydro-4-oxo-4H-pyrimido[2,1-a]isoquinoline-3-carboxylic Acid] yielded an ED50 of 0.048 mg/kg.
Work on C=CCC1Cn2c(ncc(C(=O)OCC)c2=O)-c2cc(OC)ccc21 (racemic) [Example 10D, ethyl (±)-7-Allyl-6,7-dihydro-10-methoxy-4-oxo-4H-pyrimido[2,1-a]-3-carboxylate] yielded an ED50 of roughly 0.31 mg/kg.
C=CCC1Cn2c(ncc(C(=O)O)c2=O)-c2cc(OC)ccc21 (racemic) [Example 11E, (±)-7-allyl-6,7-dihydro-10-methoxy-4-oxo-4H-pyrimido[2,1-a]isoquinoline-3-carboxylic Acid] showed an ED50 of roughly 0.077 mg/kg.
CCOC(=O)c1cnc2n(c1=O)CCc1ccccc1-2 [Example 6, Ethyl 6,7-Dihydro-4-oxo-4H-pyrimido[2,1-a]isoquinoline-3-carboxylate] showed an ED50 of 2.3 mg/kg.
With CC(C)C(=O)Oc1ccc2c(c1)-c1ncc(C(=O)O)c(=O)n1CC2 [Example 21, 10-Isobutyryloxy-6,7-dihydro-4-oxo-4H-pyrimido[2,1-a]isoquinoline-3-carboxylic Acid] the ED50 was roughly 0.5 mg/kg.
CCOC(=O)c1cnc2n(c1=O)CC(CC)c1ccccc1-2 (racemic) [Example 10B, ethyl (±)-7-Ethyl-6,7-dihydro-4-oxo-4H-pyrimido[2,1-a]isoquinoline-3-carboxylate] gave an ED50 of 0.13 mg/kg.
For CCOC(=O)c1cnc2n(c1=O)CCc1cc(OC)ccc1-2 [Example 9, Ethyl 6,7-Dihydro-9-methoxy-4-oxo-4H-pyrimido[2,1-a]isoquinoline-3-carboxylate], the ED50 was roughly 13 mg/kg.
Work on CCOC(=O)c1cnc2n(c1=O)CCc1ccc(OC)cc1-2 [Example 10A, ethyl 6,7-Dihydro-10-methoxy-4-oxo-4H-pyrimido[2,1-a]isoquinoline-3-carboxylate] yielded an ED50 of roughly 0.81 mg/kg.

Same assay, conditions: po, 10 minutes prior to antigen challenge, Table II and its footnote, read-out: Rat PCA Test ID50, p.o. (dose of compound that inhibits 50% of the response)
For CCOC(=O)c1cnc2c3cc(OC)c(OC)cc3ccn2c1=O [Example 13C, ethyl 9,10-Dimethoxy-4-oxo-4H-pyrimido[2,1-a]isoquinoline-3-carboxylate], the ED50 was roughly 2.63 mg/kg.
CCc1cn2c(=O)c(-c3nnn[nH]3)cnc2c2ccccc12 [Example 25, 7-Ethyl-3-(1H-tetrazol-5-yl)-4H-pyrimido[2,1-a]isoquinol-4-one] showed an ED50 of 0.04 mg/kg.
Compound CCCc1cn2c(=O)c(C(=O)OCC)cnc2c2cc(OC)ccc12 [Example 15, Ethyl 10-Methoxy-4-oxo-7-propyl-4H-pyrimido[2,1-a]isoquinoline-3-carboxylate] has an ED50 of roughly 16 mg/kg.
In the case of CCOC(=O)c1cnc2c3ccccc3ccn2c1=O [Example 1, Ethyl 4-Oxo-4H-pyrimido[2,1-a]isoquinoline-3-carboxylate], the ED50 is reported as greater than 5 mg/kg.
With C=CCc1cn2c(=O)c(C(=O)OCC)cnc2c2cc(OC)ccc12 [Example 14, Ethyl 7-Allyl-10-methoxy-4-oxo-4H-pyrimido[2,1-a]isoquinoline-3-carboxylate] the ED50 was greater than 5 mg/kg.
Work on CCOC(=O)c1cnc2c3cc(OC)ccc3ccn2c1=O [Example 13A, ethyl 10-Methoxy-4-oxo-4H-pyrimido[2,1-a]isoquinoline-3-carboxylate] yielded an ED50 of roughly 0.9 mg/kg.
